Consider 20 molecules from patent EP3939664A1 (priority 2020, dated 2022).

The test system of data set [1] is SARS-CoV-2. In words: Cell monolayer protection assay (crystal violet staining of virus-induced cell death). The class given is cell-based, SARS-CoV-2 stock strain NL/2020. Also noted: PC Max: unit: uM. As to conditions: for minimal effective concentration: Severe acute respiratory syndrome coronavirus 2, Vero C1008, minimum compound concentration protecting Vero-E6 cell monolayer from virus induced cell death, read-out: PC Min; for minimal effective concentration / PC Max: 72 hours, dilutions from 50µM to 780nM tested; for PC Max: maximum compound concentration protecting Vero-E6 cell monolayer from virus induced cell death.

The nature of data set [2]: in vitro. Particulars: human, huh7-lunet#3 cells.
Data set [3] has as its system hCoV-229E-GFP virus (Human coronavirus 229E expressing Green Fluorescent Protein). In words: microbe, parasite or virus in culture. As to conditions: Huh7-Lunet#3 cells, 72 hours at 33°C, read-out: reduction of hCoV-229E-GFP propagation. The data set is classed as cell-based.
The subject of data set [4] is SARS-CoV-2. In words: Relative viral RNA content by real time qPCR. The class given is cell-based. As to conditions: for activity at 15 µM: Severe acute respiratory syndrome coronavirus 2, Vero C1008, 15µM compound, viral RNA by qPCR, relative to cells treated only with vehicle (DMSO). A general note: In qPCR the cycle at which signal appears reflects the starting amount.

Consider `CCCCc1ccc(-c2ccc3nc(-c4ccc(OC)cc4)cc(C(=O)O)c3c2)cc1` [Example 3, 6-(4-butylphenyl)-2-(4-methoxyphenyl)quinoline-4-carboxylic acid], for which, in data set [1], the minimal effective concentration is 50 µM and the “PC Max” value is listed as 50.

For `COc1ccc(-c2cc(C(=O)O)c3cc(-c4ccc(C(C)(C)C)cc4)ccc3n2)cc1` [Example 4, 6-(4-(tert-butyl)phenyl)-2-(4-methoxyphenyl)quinoline-4-carboxylic acid], the viability (usually a read-out of living cells in per cent, often relative to untreated cells) at 72 h, 10 µM in data set [2] turned out to be 107%. In addition, in data set [3], the inhibition at 10 µM came out at 74%. Besides, in data set [1], the minimal effective concentration came to 50 µM and the “PC Max” value is on record as 50.

As for `CCc1ccc(-c2ccc3nc(-c4ccccc4)cc(C(=O)O)c3c2)cc1` [Example 12, 6-(4-ethylphenyl)-2-phenylquinoline-4-carboxylic acid], in data set [1], the minimal effective concentration amounted to 50 µM and the “PC Max” value is on record as 50.

Take `CC(C)(C)c1ccc(-c2ccc3nc(-c4ccccc4)cc(C(=O)O)c3c2)cc1` [Example 14, 6-(4-(tert-butyl)phenyl)-2-phenylquinoline-4-carboxylic acid]: in data set [1], the minimal effective concentration was found to be 50 µM and the “PC Max” value came to 50.

Take `O=C(O)c1cc(-c2ccccc2)nc2ccc(-c3ccc(Cl)c(Cl)c3)cc12` [Example 16, 6-(3,4-dichlorophenyl)-2-phenylquinoline-4-carboxylic acid]: in data set [1], the minimal effective concentration stood at 50 µM and the “PC Max” value is 50.

`CCc1ccc(-c2ccc(-c3cc(C(=O)O)c4ccccc4n3)cc2)cc1` [Example 19, 2-(4'-ethyl-[1,1'-biphenyl]-4-yl)quinoline-4-carboxylic acid]: in data set [1], the minimal effective concentration worked out at 50 µM and the “PC Max” value was 50.

`CCCCc1ccc(-c2ccc(-c3cc(C(=O)O)c4ccccc4n3)cc2)cc1` [Example 20, 2-(4'-butyl-[1,1'-biphenyl]-4-yl)quinoline-4-carboxylic acid]: in data set [1], the minimal effective concentration worked out at 12.5 µM and the “PC Max” value stood at 50. For the same molecule, in data set [4], the “viral RNA levels by qPCR (result in words)” value (from here on “viral RNA levels by qPCR”) is reported as “virtually undetectable levels” and the activity at 15 µM stood at 0.001%.

On to `CC(C)(C)c1ccc(-c2ccc(-c3cc(C(=O)O)c4ccccc4n3)cc2)cc1` [Example 21, 2-(4'-(tert-butyl)-[1,1'-biphenyl]-4-yl)quinoline-4-carboxylic acid], for which the “protective activity against SARS-CoV-2 (result in words)” value in data set [1] (Figure 1, 0.78-50µM) was “comparable efficacy to remdesivir”. Further, in data set [1], the minimal effective concentration turned out to be 3.12 µM and the “PC Max” value amounted to 50. In data set [4], the “viral RNA levels by qPCR” value is listed as “virtually undetectable levels” and the activity at 15 µM worked out at 1e-05%.

As to `O=C(O)c1cc(-c2ccc(-c3ccc(Cl)c(Cl)c3)cc2)nc2ccccc12` [Example 23, 2-(3',4'-dichloro-[1,1'-biphenyl]-4-yl)quinoline-4-carboxylic acid], in data set [1], the minimal effective concentration was found to be 50 µM and the “PC Max” value was found to be 50.

In the case of `O=C(O)c1cc(-c2ccc(-c3cccc(OC(F)(F)F)c3)cc2)nc2ccccc12` [Example 24, 2-(3'-(trifluoromethoxy)-[1,1'-biphenyl]-4-yl)quinoline-4-carboxylic acid], in data set [1], the minimal effective concentration stood at 50 µM and the “PC Max” value stood at 50.

For `CCCCc1ccc(-c2cccc(-c3cc(C(=O)O)c4ccccc4n3)c2)cc1` [Example 27, 2-(4'-butyl-[1,1'-biphenyl]-3-yl)quinoline-4-carboxylic acid], in data set [1], the minimal effective concentration was found to be 25 µM and the “PC Max” value came out at 50.

Regarding `CC(C)(C)c1ccc(-c2cccc(-c3cc(C(=O)O)c4ccccc4n3)c2)cc1` [Example 28, 2-(4'-(tert-butyl)-[1,1'-biphenyl]-3-yl)quinoline-4-carboxylic acid], in data set [1], the minimal effective concentration turned out to be 25 µM and the “PC Max” value is 50.

Turning to `CCCCc1ccc(-c2ccc3c(C(=O)O)cc(-c4ccc(OC)cc4)nc3c2)cc1` [Example 33, 7-(4-butylphenyl)-2-(4-methoxyphenyl)quinoline-4-carboxylic acid], in data set [1], the minimal effective concentration turned out to be 50 µM and the “PC Max” value is 50.

`COc1ccc(-c2cc(C(=O)O)c3ccc(-c4ccc(C(C)(C)C)cc4)cc3n2)cc1` [Example 34, 7-(4-(tert-butyl)phenyl)-2-(4-methoxyphenyl)quinoline-4-carboxylic acid]: in data set [1], the minimal effective concentration turned out to be 50 µM and the “PC Max” value was 50.

For `CCc1ccc(-c2cccc3c(C(=O)O)cc(-c4ccc(OC)cc4)nc23)cc1` [Example 42, 8-(4-ethylphenyl)-2-(4-methoxyphenyl)quinoline-4-carboxylic acid], in data set [1], the minimal effective concentration came to 50 µM and the “PC Max” value came to 50.

`COc1ccc(-c2cc(C(=O)O)c3cccc(-c4ccc(C(C)(C)C)cc4)c3n2)cc1` [Example 44, 8-(4-(tert-butyl)phenyl)-2-(4-methoxyphenyl)quinoline-4-carboxylic acid]: in data set [1], the minimal effective concentration turned out to be 12.5 µM and the “PC Max” value amounted to 50. In addition, in data set [4], the “viral RNA levels by qPCR” value was “virtually undetectable levels” and the activity at 15 µM was 0.01%.

In the case of `COc1ccc(-c2cc(C(=O)O)c3cccc(-c4ccc(Cl)c(Cl)c4)c3n2)cc1` [Example 46, 8-(3,4-dichlorophenyl)-2-(4-methoxyphenyl)quinoline-4-carboxylic acid], in data set [1], the minimal effective concentration was determined as 50 µM and the “PC Max” value is 50.

`COc1ccc(-c2cc(C(=O)O)c3cccc(-c4cccc(OC(F)(F)F)c4)c3n2)cc1` [Example 47, 2-(4-methoxyphenyl)-8-(3-(trifluoromethoxy)phenyl)quinoline-4-carboxylic acid]: in data set [1], the minimal effective concentration was determined as 50 µM and the “PC Max” value was found to be 50.

`CCCOc1ccc(-c2cccc3c(C(=O)O)cc(-c4ccc(OC)cc4)nc23)cc1` [Example 48, 2-(4-methoxyphenyl)-8-(4-propoxyphenyl)quinoline-4-carboxylic acid]: in data set [1], the minimal effective concentration worked out at 50 µM and the “PC Max” value amounted to 50.

For `CCC(CC)COC(=O)[C@H](C)N[P@](=O)(OC[C@H]1O[C@@](C#N)(c2ccc3c(N)ncnn23)[C@H](O)[C@@H]1O)Oc1ccccc1` [Remdesevir, remdesivir, reference compound], in data set [1], the minimal effective concentration came out at 0.78 µM and the “PC Max” value worked out at 50.
